# Data from article PMC11233931, “Remodeling tumor‐associated macrophage for anti‐cancer effects by rational design of irreversible inhibition of mitogen‐activated protein kinase‐activated protein kinase 2” (MedComm, 2024).
# How the values were obtained:
# [1] = biological target: T1, 380 human recombinant protein kinases (Homo sapiens, UniProt P17252); assay: Eurofins kinase selectivity profile against 380 other human recombinant kinases (Table S2); assay type: biochemical; conditions: PKCα(h), read-out: Inhibition rate
# T1 construct: purchased Eurofins (Celle Lévescault)
# Experimental: (§1) Subsequently, to ascertain whether the high potency of compound 11 was specific for MK2, an additional 380 human recombinant protein kinases were screened.
# (§2) To assess the impact of various compounds on MK2 kinase activity, we utilized the ADP‐Glo Assay Kit (Promega) following the manufacturer's instructions. Luminescence measurements were taken using a SpectraMax Paradigm reader. The inhibition percentage was calculated using the following formula: ((specific signalDMSO control − specific signal inhibitor)/(specific signalDMSO control)) × 100%. The IC50 values were determined employing dose–response curve fitting via Prism (Graph Pad). Additionally, Eurofins company (Celle Lévescault) conducted the analysis on compound 11’s inhibitory activity against 380 other human recombinant kinases at various concentrations.
# [2] = biological target: T2, 380 human recombinant protein kinases (Homo sapiens, UniProt P28482); assay: as above; assay type: biochemical; conditions: MAPK2(h), read-out: Inhibition rate
# T2 construct: purchased Eurofins (Celle Lévescault)
# Experimental: as §1, §2
# [3] = biological target: T3, 380 human recombinant protein kinases (Homo sapiens, UniProt Q5S007); assay: as above; assay type: biochemical; conditions: LRRK2(h), read-out: Inhibition rate
# T3 construct: purchased Eurofins (Celle Lévescault)
# Experimental: as §1, §2
# [4] = biological target: T4, 380 human recombinant protein kinases (Homo sapiens, UniProt Q5VT25); assay: as above; assay type: biochemical; conditions: MRCKα(h), read-out: Inhibition rate
# T4 construct: purchased Eurofins (Celle Lévescault)
# Experimental: as §1, §2
# [5] = tested on: MRC1 and ARG-1 mRNA in RAW264.7 macrophages; assay: RT-PCR of M2 markers in IL-4/IL-13 stimulated RAW264.7 macrophages; assay type: cell-based, mouse; conditions: IL-4/IL-13 20 ng/mL
# From the text: A previous study has reported that MK2 fostered M2‐like polarization of TAMs, driving a protumor and proangiogenic phenotype which in turn accelerates tumor progression.[21] We thus assessed the influence of compound 11 on macrophage polarization and function. Our experiments used human THP‐1 monocyte induced macrophages, mouse RAW264.7 macrophages, and mouse bone marrow‐derived macrophages (BMDM). These cells were induced into M2‐like macrophages using the classic IL‐4 and IL‐13 stimuli.
# (§3) FIGURE 5 Inhibition of pro‐tumorigenic M2‐like polarization in macrophages by compound 11. (A–C) RT‐PCR analysis highlights the impact of compound 11 on MRC1 and ARG‐1 mRNA expression in various macrophage cells treated with IL‐4/IL‐13 alone or combined with compound 11 for 12 h or 24 h. […] Data are shown as the mean ± SD. ^* p < 0.05; ^*** p < 0.001 versus the vehicle group, determined by unpaired t test. […]
# Total RNA was extracted from cultured cells using the EZ‐press RNA Purification Kit (EZBioscience). Complementary DNA was synthesized using the ABScript III RT Master Mix for qPCR with gDNA remover (ABclonal Technology) and was quantified with primers listed in Table S5. The relative mRNA expression levels were quantified through qPCR using the SYBR green gene expression assay (ABclonal Technology).
# [6] = tested on: TAMs and CD206+ TAMs in MC38 tumor; assay: Flow cytometry of tumor infiltrating TAMs in MC38 tumor model; assay type: in vivo, mouse; conditions: treated 9 days
# Experimental: as §3, with “h. (D) CD206 and Arg‐1 expression in bone marrow‐derived macrophages (BMDM) cells via flow cytometry post 48 h treatment of compound 11 and IL‐4/IL‐13. (E) The treatment effects of compound 11 in THP‐1 cells using western blot analysis. Cells were pretreated with compound 11 for 1 h and followed by IL‐4/IL‐13 treatment (30 min). (F) The influence of MK2 siRNA on MRC1 and ARG‐1 mRNA expression in THP‐1 cells by RT‐PCR analysis post‐IL‐4/IL‐13 stimulation (12 h).” for “h.”
# Antibodies targeting specific proteins along with corresponding isotype controls or FMO controls were employed to examine the leukocyte infiltrate: CD11b, CD45, CD206, Arg‐1, and F4/80 (BD, eBioscience and Biolegend). […] Eventually, the gathered data were analyzed using the FlowJo software, with the gating strategies utilized for flow cytometry represented in Figure S5.
# T3 sequence (Q5S007 whole entry): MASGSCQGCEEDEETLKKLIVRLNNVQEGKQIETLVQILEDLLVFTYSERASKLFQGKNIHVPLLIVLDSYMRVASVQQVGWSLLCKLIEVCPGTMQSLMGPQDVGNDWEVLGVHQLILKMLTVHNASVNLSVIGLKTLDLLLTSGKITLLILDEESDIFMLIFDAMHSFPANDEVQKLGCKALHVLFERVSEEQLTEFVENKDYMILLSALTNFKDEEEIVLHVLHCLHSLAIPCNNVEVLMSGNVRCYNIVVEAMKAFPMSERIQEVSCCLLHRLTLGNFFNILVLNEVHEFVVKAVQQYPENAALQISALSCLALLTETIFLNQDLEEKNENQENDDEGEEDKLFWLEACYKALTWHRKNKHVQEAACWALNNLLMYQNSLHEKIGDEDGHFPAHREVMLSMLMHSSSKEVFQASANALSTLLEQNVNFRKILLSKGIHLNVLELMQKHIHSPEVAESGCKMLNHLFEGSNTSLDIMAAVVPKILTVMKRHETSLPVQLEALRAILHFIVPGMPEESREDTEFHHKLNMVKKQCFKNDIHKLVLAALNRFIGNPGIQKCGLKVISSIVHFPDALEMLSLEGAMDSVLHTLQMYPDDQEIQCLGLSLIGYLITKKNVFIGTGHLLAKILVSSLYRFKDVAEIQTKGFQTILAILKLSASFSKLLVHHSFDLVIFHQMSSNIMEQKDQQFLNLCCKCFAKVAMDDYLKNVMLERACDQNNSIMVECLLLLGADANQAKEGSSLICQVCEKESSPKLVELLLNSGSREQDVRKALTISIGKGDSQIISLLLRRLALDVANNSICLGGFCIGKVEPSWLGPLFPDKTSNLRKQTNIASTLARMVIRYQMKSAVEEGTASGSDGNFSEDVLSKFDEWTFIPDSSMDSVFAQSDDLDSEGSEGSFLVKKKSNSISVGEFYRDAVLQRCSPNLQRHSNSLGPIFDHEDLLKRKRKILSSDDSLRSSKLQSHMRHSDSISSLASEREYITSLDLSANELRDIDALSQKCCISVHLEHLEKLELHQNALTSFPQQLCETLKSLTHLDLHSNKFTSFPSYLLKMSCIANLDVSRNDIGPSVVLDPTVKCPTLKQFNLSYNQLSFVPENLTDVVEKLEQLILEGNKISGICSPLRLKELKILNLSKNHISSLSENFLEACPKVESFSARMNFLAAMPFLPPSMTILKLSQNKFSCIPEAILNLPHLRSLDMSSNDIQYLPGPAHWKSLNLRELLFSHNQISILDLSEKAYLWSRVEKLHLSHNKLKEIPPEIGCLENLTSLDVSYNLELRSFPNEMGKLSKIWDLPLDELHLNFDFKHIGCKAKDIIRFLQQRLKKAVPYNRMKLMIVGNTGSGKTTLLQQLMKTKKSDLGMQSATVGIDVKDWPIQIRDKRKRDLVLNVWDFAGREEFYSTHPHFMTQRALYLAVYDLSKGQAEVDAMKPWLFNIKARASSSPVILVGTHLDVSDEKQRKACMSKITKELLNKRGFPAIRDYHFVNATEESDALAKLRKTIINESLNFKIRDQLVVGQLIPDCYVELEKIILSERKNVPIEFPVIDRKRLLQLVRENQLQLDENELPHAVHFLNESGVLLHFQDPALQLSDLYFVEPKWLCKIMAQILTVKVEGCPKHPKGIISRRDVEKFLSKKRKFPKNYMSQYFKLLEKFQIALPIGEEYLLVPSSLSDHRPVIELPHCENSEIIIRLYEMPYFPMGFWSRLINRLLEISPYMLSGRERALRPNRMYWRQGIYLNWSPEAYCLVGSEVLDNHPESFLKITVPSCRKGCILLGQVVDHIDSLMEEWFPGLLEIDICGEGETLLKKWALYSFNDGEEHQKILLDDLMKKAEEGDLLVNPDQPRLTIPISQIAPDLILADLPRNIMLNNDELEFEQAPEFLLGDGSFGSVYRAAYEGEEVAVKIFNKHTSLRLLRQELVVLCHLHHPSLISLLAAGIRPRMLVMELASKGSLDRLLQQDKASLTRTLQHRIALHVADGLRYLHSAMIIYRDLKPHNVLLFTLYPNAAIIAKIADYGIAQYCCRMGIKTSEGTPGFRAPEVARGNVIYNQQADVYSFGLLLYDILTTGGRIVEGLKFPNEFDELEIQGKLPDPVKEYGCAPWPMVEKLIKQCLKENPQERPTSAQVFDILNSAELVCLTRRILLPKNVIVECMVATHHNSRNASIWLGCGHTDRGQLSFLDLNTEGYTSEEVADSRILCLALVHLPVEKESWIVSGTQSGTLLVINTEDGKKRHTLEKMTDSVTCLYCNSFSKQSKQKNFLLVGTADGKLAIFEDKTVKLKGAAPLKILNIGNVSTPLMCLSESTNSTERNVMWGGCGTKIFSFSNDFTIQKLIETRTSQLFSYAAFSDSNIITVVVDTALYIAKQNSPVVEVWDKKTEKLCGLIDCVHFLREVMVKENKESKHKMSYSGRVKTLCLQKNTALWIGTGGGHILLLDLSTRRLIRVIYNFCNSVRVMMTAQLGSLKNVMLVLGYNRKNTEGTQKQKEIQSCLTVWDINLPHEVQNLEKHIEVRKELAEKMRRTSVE
# T2 sequence (P28482 whole entry): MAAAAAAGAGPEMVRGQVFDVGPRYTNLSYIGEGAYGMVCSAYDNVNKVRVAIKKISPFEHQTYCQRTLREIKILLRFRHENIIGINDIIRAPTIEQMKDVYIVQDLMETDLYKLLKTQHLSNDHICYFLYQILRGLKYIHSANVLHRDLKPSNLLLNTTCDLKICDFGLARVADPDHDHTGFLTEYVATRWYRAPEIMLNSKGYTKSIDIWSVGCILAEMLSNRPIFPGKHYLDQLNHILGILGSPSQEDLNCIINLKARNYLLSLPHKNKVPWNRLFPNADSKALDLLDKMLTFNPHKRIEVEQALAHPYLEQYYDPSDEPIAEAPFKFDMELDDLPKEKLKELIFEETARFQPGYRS
# T4 sequence (Q5VT25 whole entry): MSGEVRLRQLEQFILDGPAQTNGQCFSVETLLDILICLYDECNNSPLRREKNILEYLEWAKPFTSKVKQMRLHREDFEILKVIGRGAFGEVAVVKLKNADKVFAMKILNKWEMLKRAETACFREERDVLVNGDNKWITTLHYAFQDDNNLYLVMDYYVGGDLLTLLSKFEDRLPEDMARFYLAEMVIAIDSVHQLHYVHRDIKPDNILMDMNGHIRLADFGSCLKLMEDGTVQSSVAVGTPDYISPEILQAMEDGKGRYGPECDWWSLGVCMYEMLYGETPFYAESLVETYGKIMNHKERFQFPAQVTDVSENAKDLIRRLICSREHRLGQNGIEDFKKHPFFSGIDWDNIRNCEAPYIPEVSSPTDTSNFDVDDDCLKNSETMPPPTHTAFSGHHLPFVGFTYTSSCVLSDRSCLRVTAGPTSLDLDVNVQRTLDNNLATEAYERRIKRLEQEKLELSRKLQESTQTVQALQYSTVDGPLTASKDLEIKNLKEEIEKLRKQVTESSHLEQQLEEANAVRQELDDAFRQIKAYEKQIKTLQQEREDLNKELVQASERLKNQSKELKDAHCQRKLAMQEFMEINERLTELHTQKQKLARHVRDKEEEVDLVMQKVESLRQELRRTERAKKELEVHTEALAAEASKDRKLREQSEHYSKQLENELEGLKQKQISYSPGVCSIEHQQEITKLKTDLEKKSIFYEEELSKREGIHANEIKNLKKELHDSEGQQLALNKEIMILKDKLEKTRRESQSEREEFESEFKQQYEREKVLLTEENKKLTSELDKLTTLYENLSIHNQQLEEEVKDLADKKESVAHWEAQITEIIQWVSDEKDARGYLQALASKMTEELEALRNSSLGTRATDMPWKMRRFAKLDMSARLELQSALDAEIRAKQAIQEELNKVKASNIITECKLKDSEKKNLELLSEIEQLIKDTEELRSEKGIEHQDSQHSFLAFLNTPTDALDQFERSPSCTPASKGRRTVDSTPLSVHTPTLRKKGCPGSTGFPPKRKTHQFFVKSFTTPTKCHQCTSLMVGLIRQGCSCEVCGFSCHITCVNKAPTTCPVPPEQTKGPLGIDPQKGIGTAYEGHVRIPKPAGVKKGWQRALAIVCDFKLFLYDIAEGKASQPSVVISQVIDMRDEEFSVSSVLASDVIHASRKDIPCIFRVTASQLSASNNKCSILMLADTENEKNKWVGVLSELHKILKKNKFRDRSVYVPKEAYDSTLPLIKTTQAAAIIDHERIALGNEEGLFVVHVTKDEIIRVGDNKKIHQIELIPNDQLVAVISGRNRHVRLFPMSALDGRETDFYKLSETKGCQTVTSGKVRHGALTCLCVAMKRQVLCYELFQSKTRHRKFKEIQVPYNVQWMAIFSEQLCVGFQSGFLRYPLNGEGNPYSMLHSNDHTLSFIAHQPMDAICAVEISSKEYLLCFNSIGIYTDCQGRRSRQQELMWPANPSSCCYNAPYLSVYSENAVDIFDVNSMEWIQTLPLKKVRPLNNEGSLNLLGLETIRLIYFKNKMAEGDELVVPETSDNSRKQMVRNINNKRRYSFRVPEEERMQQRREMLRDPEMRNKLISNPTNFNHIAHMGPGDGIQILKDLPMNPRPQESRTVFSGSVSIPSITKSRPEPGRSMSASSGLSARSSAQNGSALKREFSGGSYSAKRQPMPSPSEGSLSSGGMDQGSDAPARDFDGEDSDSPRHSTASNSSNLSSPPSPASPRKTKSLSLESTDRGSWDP
structure (smiles),measurement,setting,value
C=CC(=O)Nc1cc(-c2cc(-c3cc4c([nH]3)CCNC4=O)ccn2)ccc1OC(F)(F)F [compound 11],inhibition at 0.01 µM,[1]; 10 nM,5%
same,inhibition at 0.1 µM,[1]; 100 nM,14%
same,inhibition at 1 µM,[1]; 1000 nM,6%
same,inhibition at 0.01 µM,[2]; 10 nM,-5%
same,inhibition at 0.1 µM,[2]; 100 nM,-7%
same,inhibition at 1 µM,[2]; 1000 nM,13%
same,inhibition at 0.01 µM,[3]; 10 nM,-4%
same,inhibition at 0.1 µM,[3]; 100 nM,17%
same,inhibition at 1 µM,[3]; 1000 nM,74%
same,inhibition at 0.01 µM,[4]; 10 nM,-5%
same,inhibition at 0.1 µM,[4]; 100 nM,-3%
same,inhibition at 1 µM,[4]; 1000 nM,-3%
same,effect on transcriptional level of MRC1 and ARG-1,[5],significantly suppressed
same,effect on total and M2-like (CD206+) TAM populations in tumor,[6],marked reduction
